Reference: the NIST ThermoML archive (doi:10.1021/je030218b)
± gives the expanded uncertainty stated by the source.

Tests used:
[1] = xn = mol fraction of the nth substance listed; conditions: 298.15 K, 101 kPa, Liquid
[2] = refractive index (Na D-line) (dimensionless); xn = mol fraction of the nth substance listed; conditions: 298.15 K, 101 kPa, Liquid, Standard Abbe refractometry
[3] = refractive index (Na D-line) (dimensionless); conditions: 298.15 K; 101.33 kPa; Liquid; Standard Abbe refractometry
[4] = Liquid; for mass density / speed of sound: 298.15 K, 101.33 kPa

`CCCCCO` [pentan-1-ol] + CCOC(C)=O gave a mass density ([1]; x2 = 0.05) of 814.16 ± 0.44 kg/m3, a speed of sound ([1]; x2 = 0.05) of 1263.5 ± 1.8 m/s and a mass density ([1]; x2 = 0.101) of 817.63 ± 0.43 kg/m3. For the same molecule, the speed of sound ([1]; x2 = 0.101) was 1253.8 ± 1.8 m/s, the mass density ([1]; x2 = 0.15) was 821.07 ± 0.42 kg/m3 and the speed of sound ([1]; x2 = 0.15) was 1245 ± 1.7 m/s. It also gave a mass density ([1]; x2 = 0.2) of 824.6 ± 0.42 kg/m3, a speed of sound ([1]; x2 = 0.2) of 1236.5 ± 1.7 m/s and a mass density ([1]; x2 = 0.251) of 828.3 ± 0.41 kg/m3. The speed of sound ([1]; x2 = 0.251) was 1227.5 ± 1.7 m/s, the mass density ([1]; x2 = 0.3) was 831.9 ± 0.4 kg/m3 and the speed of sound ([1]; x2 = 0.3) was 1219.9 ± 1.7 m/s. For the same molecule, the mass density ([1]; x2 = 0.35) was 835.73 ± 0.4 kg/m3, the speed of sound ([1]; x2 = 0.35) was 1211.9 ± 1.7 m/s and the mass density ([1]; x2 = 0.4) was 839.69 ± 0.39 kg/m3. For the same molecule, the speed of sound ([1]; x2 = 0.4) was 1204.5 ± 1.7 m/s, the mass density ([1]; x2 = 0.45) was 843.69 ± 0.38 kg/m3 and the speed of sound ([1]; x2 = 0.45) was 1198.2 ± 1.7 m/s. The mass density ([1]; x2 = 0.5) was 847.81 ± 0.38 kg/m3, the speed of sound ([1]; x2 = 0.5) was 1190.5 ± 1.7 m/s and the mass density ([1]; x2 = 0.549) was 851.89 ± 0.37 kg/m3. It also gave a speed of sound ([1]; x2 = 0.549) of 1184.1 ± 1.7 m/s, a mass density ([1]; x2 = 0.599) of 856.06 ± 0.36 kg/m3 and a speed of sound ([1]; x2 = 0.599) of 1178.8 ± 1.7 m/s. The mass density ([1]; x2 = 0.65) was 860.53 ± 0.36 kg/m3, the speed of sound ([1]; x2 = 0.65) was 1172.1 ± 1.7 m/s and the mass density ([1]; x2 = 0.7) was 865.01 ± 0.35 kg/m3. For the same molecule, the speed of sound ([1]; x2 = 0.7) was 1166.8 ± 1.7 m/s, the mass density ([1]; x2 = 0.749) was 869.4 ± 0.34 kg/m3 and the speed of sound ([1]; x2 = 0.749) was 1161.7 ± 1.6 m/s. For the same molecule, the mass density ([1]; x2 = 0.8) was 874.19 ± 0.34 kg/m3, the speed of sound ([1]; x2 = 0.8) was 1157.1 ± 1.6 m/s and the mass density ([1]; x2 = 0.85) was 879 ± 0.33 kg/m3. For the same molecule, the speed of sound ([1]; x2 = 0.85) was 1152.2 ± 1.6 m/s, the mass density ([1]; x2 = 0.898) was 883.69 ± 0.32 kg/m3 and the speed of sound ([1]; x2 = 0.898) was 1148 ± 1.6 m/s. The mass density ([1]; x2 = 0.947) was 888.68 ± 0.32 kg/m3, the speed of sound ([1]; x2 = 0.947) was 1144.1 ± 1.6 m/s and the refractive index ([2]; x2 = 0.05) was 1.40579 ± 0.00072. For the same molecule, the refractive index ([2]; x2 = 0.101) was 1.40382 ± 0.00072, the refractive index ([2]; x2 = 0.15) was 1.40193 ± 0.00072 and the refractive index ([2]; x2 = 0.2) was 1.40012 ± 0.00072. The refractive index ([2]; x2 = 0.251) was 1.39803 ± 0.00072, the refractive index ([2]; x2 = 0.3) was 1.39629 ± 0.00072 and the refractive index ([2]; x2 = 0.35) was 1.39423 ± 0.00072. It also gave a refractive index ([2]; x2 = 0.4) of 1.3925 ± 0.00072, a refractive index ([2]; x2 = 0.45) of 1.39052 ± 0.00072 and a refractive index ([2]; x2 = 0.5) of 1.38863 ± 0.00072. It also gave a refractive index ([2]; x2 = 0.549) of 1.38676 ± 0.00072, a refractive index ([2]; x2 = 0.599) of 1.38493 ± 0.00072 and a refractive index ([2]; x2 = 0.65) of 1.38303 ± 0.00072. The refractive index ([2]; x2 = 0.7) was 1.38107 ± 0.00072, the refractive index ([2]; x2 = 0.749) was 1.37919 ± 0.00072 and the refractive index ([2]; x2 = 0.8) was 1.37733 ± 0.00072. For the same molecule, the refractive index ([2]; x2 = 0.85) was 1.37548 ± 0.00072, the refractive index ([2]; x2 = 0.898) was 1.3736 ± 0.00072 and the refractive index ([2]; x2 = 0.947) was 1.37188 ± 0.00072.

`CCOC(C)=O` [ethyl acetate] showed a refractive index [3] of 1.3698 ± 0.00072, a mass density [4] of 894.24 ± 0.38 kg/m3 and a speed of sound [4] of 1137.7 ± 1.6 m/s. For the same molecule, the “vapor or sublimation pressure” value ([4]; 350.25 K) was 101.3 ± 1.1 kPa.

For `CC(C)CO` [2-methyl-1-propanol], the refractive index [3] was 1.3937 ± 0.00072, the mass density [4] was 797.84 ± 0.46 kg/m3 and the speed of sound [4] was 1185.6 ± 1.7 m/s. For the same molecule, the “vapor or sublimation pressure” value ([4]; 381 K) was 101.3 ± 1.1 kPa.
